Source: patent US20090215884A1, “METHOD FOR WOUND HEALING” (priority 2005, published 2009)

Key:
[1] = system: epidermal keratinocytes; assay: MTT cell viability and proliferation, epidermal keratinocytes; type: cell-based, human; settings: 100 μg/ml PEP005
Description: (§1) Human, adult, epidermal keratinocytes, were purchased cryopreserved from Cascade Biologics Inc., Nottinghamshire, U.K. These cells (>500,000 viable cells/vial) were tested to be >70% viable, with the capacity to proliferate for at least 16 population doublings. The epidermal keratinocytes were cultured in serum-free, EpiLife® Medium (Cascade Biologics Inc.), supplemented with antibiotics (100 U/ml penicillin G sodium, […] streptomycin sulphate and 0.25 μg/ml amphotericin B) and EpiLife® Defined Growth Supplement (EDGS, consisting of purified bovine serum albumin, purified bovine transferring, hydrocortisone, recombinant human insulin-like growth factor type-1, prostaglandin E2 and recombinant human epidermal growth factor, Cascade Biologics Inc.). Epidermal keratinocytes cultures were maintained at 37° C., in a 5% CO2/95% air atmosphere, with the culture medium being changed every 2-3 days. Epidermal keratinocytes were used between 4-6 passages, for all experiments.
(§2) Prior to use, the PEP005/DMSO stock solution was removed from 4° C. storage and warmed to room temperature. […]

[2] = system: epidermal keratinocytes; assay: Keratinocyte extracellular matrix attachment; type: cell-based, human
Description: as §1, §2

SMILES: C/C=C(/C)C(=O)O[C@H]1C(C)=C[C@]23C(=O)[C@@H](C=C(CO)[C@@H](O)[C@]12O)[C@H]1[C@@H](C[C@H]3C)C1(C)C [PEP005, ingenol-3-angelate]
- keratinocyte cell viability/proliferation (MTT) [1]: cytotoxic effect
- epidermal keratinocyte attachment to type I collagen ([2]; 0, 01-10 μg/ml PEP005): significant dose-dependent stimulation
- epidermal keratinocyte attachment to plasma fibronectin ([2]; 1-μg/ml PEP005): trend towards a possible stimulation
